The values that follow are results of earlier work, collected in patent publication US20160235072A1, “ANTIMICROBIAL POLYMER CONCENTRATES AND COMPOUNDS” (POLYONE CORPORATION, priority 2013, published 2016).

The series relates to pathogens from the Streptococcus and Staphylococcus genera.

Turning to Zinc pyrithione, the effectiveness against pathogens result is listed as “effective against many pathogens”.
